Laboratory results taken from the SangsterLogP compilation.

Assay: method code SF-HPLC, from DOI: 10.1016/j.ejmech.2006.12.027, PMID: 17306423

Row | Structure (SMILES) | logP
1 | CN(C)c1ccc(C2=[N+]([O-])C(C)(C)C(C)(C)N2O)cc1 | 2.02
2 | Cc1ccc(C2=[N+]([O-])C(C)(C)C(C)(C)N2O)cc1 | 1.9
3 | CC1(C)N(O)C(c2ccccc2)=[N+]([O-])C1(C)C | 1.37
4 | CC1(C)N(O)C(c2ccc(OCC(=O)O)cc2)=[N+]([O-])C1(C)C | -0.52
5 | CC1(C)N(O)C(c2cccnc2)=[N+]([O-])C1(C)C | 0.51
6 | CC1(C)N(O)C(c2cccc(O)c2)=[N+]([O-])C1(C)C | 1.14
7 | CC1(C)N(O)C(c2ccco2)=[N+]([O-])C1(C)C | 0.62
8 | CC1(C)N(O)C(c2ccc(Cl)cc2)=[N+]([O-])C1(C)C | 2.33
9 | COc1ccc(C2=[N+]([O-])C(C)(C)C(C)(C)N2O)cc1O | 0.92
10 | CC1(C)N(O)C(c2ccc(Cl)cc2Cl)=[N+]([O-])C1(C)C | 1.93

Now from value to compound:

Row | logP | Structure (SMILES)
11 | 1.17 | CC1(C)N(O)C(c2ccccc2O)=[N+]([O-])C1(C)C
12 | 1.62 | COc1ccc(C2=[N+]([O-])C(C)(C)C(C)(C)N2O)cc1
13 | 1.51 | CC1(C)N(O)C(c2ccc3c(c2)OCO3)=[N+]([O-])C1(C)C
14 | 0.82 | CC1(C)N(O)C(c2ccccc2F)=[N+]([O-])C1(C)C
15 | 1.64 | CC1(C)N(O)C(c2cccc([N+](=O)[O-])c2)=[N+]([O-])C1(C)C
16 | 1.14 | COc1cc(C2=[N+]([O-])C(C)(C)C(C)(C)N2O)ccc1O
17 | 2.46 | CC1(C)N(O)C(c2ccc(Br)cc2)=[N+]([O-])C1(C)C
18 | 0.91 | CC1(C)N(O)C(c2ccccc2[N+](=O)[O-])=[N+]([O-])C1(C)C
19 | 0.62 | CC1(C)N(O)C(c2ccc(O)cc2)=[N+]([O-])C1(C)C
20 | 1.68 | CC1(C)N(O)C(c2ccc([N+](=O)[O-])cc2)=[N+]([O-])C1(C)C
21 | 0.77 | COc1ccc(C2=[N+]([O-])C(C)(C)C(C)(C)N2O)c(OC)c1
22 | 1.15 | COc1ccc(C2=[N+]([O-])C(C)(C)C(C)(C)N2O)cc1OC
